Structures are written as SMILES. Counter-ions that a name gives are not always drawn.

Tested on in one data set: not given
Assay: not given
Settings: not given
As a reminder, the melting point is the temperature, or range, at which the solid turns liquid. In the case of `CN(C)CCc1c[nH]c2cc(NS(=O)(=O)c3ccc(-c4ccccc4)cc3)ccc12`, the melting point fell in the range of 164 to 168 °C. In turn, `CN(C)CCc1c[nH]c2cc(NS(=O)(=O)CCc3cccc4ccccc34)ccc12` displayed a melting point of 90 °C.

As for `CN(C)CCc1c[nH]c2cc(NS(=O)(=O)c3ccc(Oc4ccccc4)cc3)ccc12`, the melting point was 170 to 171 °C. Same read-out and setting: in the case of `CN(C)CCc1c[nH]c2cc(NS(=O)(=O)c3cc(Cl)cc(Cl)c3)ccc12` it was 96 to 98 °C; in that of `CN(C)CCc1c[nH]c2cc(NS(=O)(=O)c3cc(Cl)c(Cl)s3)ccc12`, 111 to 114 °C; in that of `CN(C)CCc1c[nH]c2cc(NS(=O)(=O)c3cccc4c(Cl)cccc34)ccc12`, 187 to 190 °C. The same measure, in the same setting: in the case of `CCN(CC)CCc1c[nH]c2cc(NS(=O)(=O)c3ccc4ccccc4c3)ccc12` it was 146 to 147 °C. `CCOC(CN(C)C)c1c[nH]c2c(NS(=O)(=O)c3sc4ccc(Cl)cc4c3C)cccc12` (stereo not shown) displayed a melting point of 145 °C. The same measure, in the same setting: for `Cc1c(S(=O)(=O)Nc2cccc3c(CCN(C)C)c[nH]c23)sc2ccc(Cl)cc12` the value was 130 to 140 °C. Turning to `CCOC(CN(CC)CC)c1c[nH]c2c(N(S(=O)(=O)c3sc4ccc(Cl)cc4c3C)S(=O)(=O)c3sc4ccc(Cl)cc4c3C)cccc12` (stereo not shown), the melting point was in the range of 155 to 156 °C. Same read-out and setting: in the case of `Cc1c(S(=O)(=O)N(c2cccc3c(CCN(C)C)c[nH]c23)S(=O)(=O)c2sc3ccc(Cl)cc3c2C)sc2ccc(Cl)cc12` it was 110 to 120 °C; in that of `CCN(CC)CCc1c[nH]c2c(N(S(=O)(=O)c3sc4ccc(Cl)cc4c3C)S(=O)(=O)c3sc4ccc(Cl)cc4c3C)cccc12`, 87 to 90 °C; in that of `CCN(CC)CCc1c[nH]c2c(NS(=O)(=O)c3sc4ccc(Cl)cc4c3C)cccc12`, 79 to 84 °C. Same read-out and setting: in the case of `CN(C)CCc1c[nH]c2cccc(NS(=O)(=O)c3ccc(-c4ccccc4)cc3)c12` it was 182 to 184 °C.

The molecule `CN(C)CCc1c[nH]c2cccc(NS(=O)(=O)c3ccc(Oc4ccccc4)cc3)c12` yielded a melting point of 78 to 82 °C. On the same count and under the same terms, in the case of `CCN(CC)CCc1c[nH]c2cc(NS(=O)(=O)c3cccc4ccccc34)ccc12` it was 183 to 187 °C; in that of `CN(C)CCc1c[nH]c2cccc(NS(=O)(=O)c3cc(Cl)cc(Cl)c3)c12`, 212 to 215 °C; in that of `Cc1c(S(=O)(=O)Nc2cccc3[nH]cc(CCN(C)C)c23)sc2ccc(Cl)cc12`, 235 to 236 °C. The same measure, in the same setting: in the case of `CN(C)CCc1c[nH]c2cccc(NS(=O)(=O)c3cccc4ccccc34)c12` it was 223 to 225 °C; in that of `CN(C)CCc1c[nH]c2cccc(NS(=O)(=O)c3ccc4c(Cl)cccc4c3)c12`, 198 to 200 °C.

Molecule `CN(C)CCc1c[nH]c2cccc(NS(=O)(=O)c3ccc4ccccc4c3)c12` had a melting point of 165 to 168 °C. Still for that read-out and setting: in the case of `CN(C)CCc1c[nH]c2cccc(NS(=O)(=O)c3c(Cl)nc4sccn34)c12` it was 216 °C; in that of `CN(C)CCc1c[nH]c2cc(N(S(=O)(=O)c3c(Cl)nc4sccn34)S(=O)(=O)c3c(Cl)nc4sccn34)ccc12`, 210 °C.

`CN(C)CCc1c[nH]c2cc(N(S(=O)(=O)c3cc(Cl)cc(Cl)c3)S(=O)(=O)c3cc(Cl)cc(Cl)c3)ccc12` displayed a melting point of 103 to 107 °C. For `CN(C)CCc1c[nH]c2cc(N(S(=O)(=O)c3cc(Cl)c(Cl)s3)S(=O)(=O)c3cc(Cl)c(Cl)s3)ccc12`, the melting point lay within 187 to 188 °C. In the case of `CCOC(CN(C)C)c1c[nH]c2cc(N(S(=O)(=O)c3sc4ccc(Cl)cc4c3C)S(=O)(=O)c3sc4ccc(Cl)cc4c3C)ccc12` (stereo not shown), the melting point turned out to be 208 °C.

For the molecule `CCN(CC)CCc1c[nH]c2cc(NS(=O)(=O)c3ccc(-c4ccccc4)cc3)ccc12`, the melting point was 81 to 85 °C. Regarding `CCN(CC)CCc1c[nH]c2cc(NS(=O)(=O)c3ccc(Oc4ccccc4)cc3)ccc12`, the melting point was 50 to 53 °C.

In turn, `CCN(CC)CCc1c[nH]c2cc(NS(=O)(=O)c3cc(Cl)cc(Cl)c3)ccc12` came in with a melting point of 79 to 85 °C. On to `CCN(CC)CCc1c[nH]c2cc(NS(=O)(=O)c3cc(Cl)c(Cl)s3)ccc12`, for which the melting point is 200 to 205 °C.

In turn, `CCN(CC)CCc1c[nH]c2cc(NS(=O)(=O)c3cccc4c(Cl)cccc34)ccc12` registered a melting point of 86 to 90 °C. Still for that read-out and setting: for `CN(C)CCc1c[nH]c2cccc(NS(=O)(=O)CCc3cccc4ccccc34)c12` (as salt: TFA) the value was 170 to 172 °C. The same measure, in the same setting: in the case of `CCN(CC)CCc1c[nH]c2cc(NS(=O)(=O)c3c(Cl)nc4sccn34)ccc12` [Example 4, 6-chloro-N-(3-(2-(diethylamino)ethyl)-1H-indol-6-yl)imidazo[2,1-b]thiazole-5-sulfonamide] it was 210 to 212 °C; in that of `CN(C)CCc1c[nH]c2cc(NS(=O)(=O)c3ccc4ccccc4c3)ccc12` [Example 11, N-(3-(2-(dimethylamino)ethyl)-1H-indol-6-yl)naphthalene-2-sulfonamide], 150 to 151 °C; in that of `CN(C)CCc1c[nH]c2cc(NS(=O)(=O)c3cccc4ccccc34)ccc12` [Example 12, N-(3-(2-(dimethylamino)ethyl)-1H-indol-6-yl)naphthalene-1-sulfonamide], 167 to 168 °C. For the molecule `CN(C)CCc1c[nH]c2cc(NS(=O)(=O)c3c(Cl)nc4sccn34)ccc12` [Example 13, 6-chloro-N-(3-(2-(dimethylamino)ethyl)-1H-indol-6-yl)imidazo[2,1-b]thiazole-5-sulfonamide], the melting point was 138 to 142 °C.

The target in another data set is T1, 5HT6-human recombinant receptor (Homo sapiens, UniProt P50406).
T1 construct: purchased Receptor Biology; host or cells: HEK-293 cells (membranes)
T1 sequence (P50406 whole entry): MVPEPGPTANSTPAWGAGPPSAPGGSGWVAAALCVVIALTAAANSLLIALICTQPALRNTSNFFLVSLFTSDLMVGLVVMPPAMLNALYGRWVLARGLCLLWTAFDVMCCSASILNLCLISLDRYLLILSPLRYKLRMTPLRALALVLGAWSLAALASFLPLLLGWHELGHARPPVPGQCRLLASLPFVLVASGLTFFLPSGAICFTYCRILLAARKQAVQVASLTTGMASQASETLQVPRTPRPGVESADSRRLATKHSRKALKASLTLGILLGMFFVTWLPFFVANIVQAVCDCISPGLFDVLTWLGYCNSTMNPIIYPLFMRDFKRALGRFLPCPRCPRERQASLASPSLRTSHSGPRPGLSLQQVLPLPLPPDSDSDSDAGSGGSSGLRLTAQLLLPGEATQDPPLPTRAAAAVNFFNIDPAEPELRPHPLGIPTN
Description: Binding to serotonin receptor 5-HT6 ([H]-LSD radioligand, HEK-293 cell membranes). As to conditions: membranes of HEK-293 cells expressing 5HT6-human recombinant receptor; [H]-LSD 2.7 nM; 60 minutes at 37° C. As for the experimental part:
I) Binding to Serotonin Receptor 5-HT6
Cell membranes of HEK-293 cells expressing the 5HT6-human recombinant receptor were supplied by Receptor Biology. In said membranes the receptor concentration is 2.18 pmol/mg protein and the protein concentration is 9.17 mg/ml. The experimental protocol follows the method of B. L. Roth et al. [B. L. Roth, S. C. Craigo, M. S. Choudhary, A. Uluer, F. J. Monsma, Y. Shen, H. Y. Meltzer, D. R. Sibley: Binding of Typical and Atypical Antipsychotic Agents to 5-Hydroxytryptamine-6 and Hydroxytryptamine-7 Receptors. The Journal of Pharmacology and Experimental Therapeutics, 1994, 268, 1403] with the following slight changes. The respective part of the literature description is hereby incorporated by reference and forms part of the disclosure.
The commercial membrane is diluted (1:40 dilution) with the binding buffer: 50 mM Tris-HCl, 10 mM MgCl2, 0.5 mM EDTA (pH 7.4). The radioligand used is [H]-LSD at a concentration of 2.7 nM with a final volume of 200 μl. Incubation is initiated by adding 100 μl of membrane suspension, (≈22.9 μg membrane protein), and is prolonged for 60 minutes at a temperature of 37° C. The incubation is ended by fast filtration in a Brandel Cell Harvester through fiber glass filters made by Schleicher & Schuell G F 3362 pretreated with a solution of polyethylenimine at 0.5%. The filters are washed three times with three milliliters of buffer Tris-HCl 50 mM pH 7.4. The filters are transferred to flasks and 5 ml of Ecoscint H liquid scintillation cocktail are added to each flask. The flasks are allowed to reach equilibrium for several hours before counting with a Wallac Winspectral 1414 scintillation counter. Non-specific binding is determined in the presence of 100 μM of serotonin. Tests were made in triplicate. The inhibition constants (Ki, nM) were calculated by non-linear regression analysis using the program EBDA/LIGAND described in Munson and Rodbard, Analytical Biochemistry, 1980, 107, 220, the respective part of which is hereby incorporated by reference and forms part of the disclosure.
The binding of the substituted indole compounds to the 5-HT6 receptor was determined as described above.
As usually defined, the Ki is a dissociation constant, usually derived from enzyme kinetics or from competition with a known ligand. As to `CCN(CC)CCc1c[nH]c2cc(NS(=O)(=O)c3c(Cl)nc4sccn34)ccc12` [Example 4, 6-chloro-N-(3-(2-(diethylamino)ethyl)-1H-indol-6-yl)imidazo[2,1-b]thiazole-5-sulfonamide], the Ki is 42.8 nM. Still for that read-out and setting: for `CN(C)CCc1c[nH]c2cc(NS(=O)(=O)c3ccc4ccccc4c3)ccc12` [Example 11, N-(3-(2-(dimethylamino)ethyl)-1H-indol-6-yl)naphthalene-2-sulfonamide] the value was 42.6 nM. The same measure, in the same setting: for `CN(C)CCc1c[nH]c2cc(NS(=O)(=O)c3cccc4ccccc34)ccc12` [Example 12, N-(3-(2-(dimethylamino)ethyl)-1H-indol-6-yl)naphthalene-1-sulfonamide] the value was 31.1 nM; for `CN(C)CCc1c[nH]c2cc(NS(=O)(=O)c3c(Cl)nc4sccn34)ccc12` [Example 13, 6-chloro-N-(3-(2-(dimethylamino)ethyl)-1H-indol-6-yl)imidazo[2,1-b]thiazole-5-sulfonamide], 7.3 nM.

The record behind these values is patent US20070213326A1, “SUBSTITUTED INDOLE COMPOUNDS AND THEIR USE AS 5-HT6 RECEPTOR MODULATORS” (LABORATORIOS DEL DR. ESTEVE S.A., priority 2004, published 2007).
